Consider three compounds from patent EP0713875B1, “Sulfonamides” (F. Hoffmann-La Roche AG, priority 1994, dated 1996).

Assay [1] deals with isolierten Aortenringen der Ratte. The assay is described as follows: Inhibition of endothelin-induced contractions in isolated rat aortic rings. The conditions noted are these: for Kb: Rattus norvegicus, 10 min, endothelium-denuded thoracic aorta rings, 10 min incubation with test compound, cumulative doses of Endothelin-1, text calls the values pA2 = log(DR-1)-log(antagonist concentration), read-out: Dosisverhältnis (Rechtsverschiebung) (converted). It is filed as cell-based, Wistar-Kyoto-Ratten. The procedure:
II. Hemmung Endothelin-induzierter Kontraktionen an isolierten Aortenringen der Ratte
Aus der Thoraxaorta von erwachsenen Wistar-Kyoto-Ratten wurden Ringe von 5 mm Länge herausgeschnitten. Das Endothel wurde durch leichtes Reiben der Innenfläche entfernt. Jeder Ring wurde bei 37°C in 10 ml Krebs-Henseleit-Lösung unter Begasung mit 95% O2 und 5% CO2 in ein isoliertes Bad eingetaucht. Die isometrische Spannung der Ringe wurde gemessen. Die Ringe wurden auf eine Vorspannung von 3 g gedehnt. Nach 10 Minuten Inkubation mit der Testverbindung oder Vehikel wurden kumulative Dosen von Endothelin-1 zugegeben. Die Aktivität der Testverbindung wurde ermittelt durch die zu beobachtende Rechtsverschiebung der Dosis-Wirkungskurve von Endothelin-1 in gegenwart verschiedener Konzentrationen an Antagonist. Diese Rechtsverschiebung (oder auch "dose ratio", DR) entspricht dabei dem Quotienten aus den EC50-Werten von Endothelin-1 in Gegenwart und in Abwesenheit von Antagonist, wobei der EC50-Wert die für eine halbmaximale Kontraktion erforderliche Endothelin-Konzentration bezeichnet.
Aus der "dose ratio" DR wurde mittels eines Computerprogramms für jede einzelne Dosis-Wirkungskurve der entsprechende PA2-Wert nach untenstehender Gleichung berechnet, welcher ein Mass für die Aktivität der Testverbindung darstellt. pA2 = log(DR-1)-log(Antagonist-Konzentration) [formula]
Die EC50 von Endothelin in Abwesenheit von Testverbindungen ist 0,3 nM.
Die mit Verbindungen der Formel I so erhaltenen Werte für pA2 sind in Tabelle 2 angegeben. Tabelle 2

Another assay addresses T1, humanen ETA-Rezeptor (Homo sapiens, UniProt P25101).
T1 construct: made in house; host or cells: insect cells (baculovirus expression system); membrane preparation
T1 sequence (P25101 21-427): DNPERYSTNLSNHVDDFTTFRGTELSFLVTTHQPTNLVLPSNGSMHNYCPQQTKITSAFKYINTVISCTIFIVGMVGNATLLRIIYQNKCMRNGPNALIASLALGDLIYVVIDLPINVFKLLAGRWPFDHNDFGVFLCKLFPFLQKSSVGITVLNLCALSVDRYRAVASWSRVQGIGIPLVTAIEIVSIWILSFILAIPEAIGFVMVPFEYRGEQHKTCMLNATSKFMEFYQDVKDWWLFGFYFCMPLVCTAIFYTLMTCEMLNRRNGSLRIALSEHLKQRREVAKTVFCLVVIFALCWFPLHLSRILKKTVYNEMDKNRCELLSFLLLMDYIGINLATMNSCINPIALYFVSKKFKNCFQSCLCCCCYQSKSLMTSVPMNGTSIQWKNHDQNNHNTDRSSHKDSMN
Nature of the assay: Inhibition of endothelin binding at the recombinant ETA receptor (125I-endothelin, membranes of baculovirus-infected insect cells). To be noted: concentration required to inhibit 50% of the specific binding of 125I-Endothelin; incubation 2 h at 20°C or 24 h at 4°C. The procedure: I: Hemmung der Endothelin-Bindung am recombinanten ETA-Rezeptor
Baculovirus-infizierte Insektenzellen aus einem 23 l Fermenter werden 60 Stunden nach der Infektion abzentrifugiert (3 000 x g, 15 Minuten, 4°C), in Tris-Puffer (5 mM, pH 7.4, 1 mM MgCl2) resuspendiert und erneut zentrifugiert. Nach erneuter Resuspension und Zentrifugation werden die Zellen in 800 ml des gleichen Puffers suspendiert und bei -120°C eingefroren. Der Aufbruch der Zellen erfolgt beim Auftauen der Suspension in diesem hypotonen Puffergemisch. Nach wiederholtem Gefrier/Auftau-Zyklus wird die Suspension homogenisiert und zentrifugiert (25 000 x g, 15 Minuten, 4°C). Nach Suspension in Tris-Puffer (75 mM, pH 7.4, 25mM MgCl2, 250 mM Saccharose) werden 1 ml Aliquots (Proteingehalt ca. 3.5 mg/ml) bei -85°C aufbewahrt.
Für den Bindungs-Assay werden die eingefrorenen Membranpräparate aufgetaut und nach 10 Minuten Zentrifugieren mit 25000 g bei 20°C in Assay-Puffer (50 mM Tris-Puffer pH 7.4, enthaltend 25 mM MnCl2, 1 mM EDTA und 0,5% Rinderserumalbumin) resuspendiert. […] Die Inkubation wird 2 Stunden bei 20°C oder 24 Stunden bei 4°C durchgeführt. Die Trennung von freiem und Membran-gebundenen Radioliganden wird durch Filtration über Glasfaserfilter vorgenommen.

A word on the EC50: it is the concentration at which the effect is half-maximal. On to Endothelin [reference compound], for which the EC50 in assay [1] (endothelin concentration required for half-maximal contraction, without antagonist, read-out: EC50 von Endothelin in Abwesenheit von Testverbindungen) turned out to be 0.3 nM.

By IC50 is commonly meant the midpoint of a concentration-inhibition curve. `COc1ccccc1Oc1c(NS(=O)(=O)c2ccc(C)cn2)nc(N2CCOCC2)nc1OCCOC(=O)Nc1ccccn1` [Beispiel 34, Pyridin-2-yl-carbaminsäure 2-[5-(2-methoxy-phenoxy)-6-(5-methyl-pyridin-2-ylsulfonylamino)-2-morpholin-4-yl-pyrimidin-4-yloxy]-ethylester]: on humanen ETA-Rezeptor, the concentration for half-maximal inhibition (IC50) came out at 0.3 nM. Further, the Kb in assay [1] was 0.2 nM. `COc1ccccc1Oc1c(NS(=O)(=O)c2ccc(C(C)C)cn2)nc(N2CCOCC2)nc1OCCOC(=O)Nc1ccccn1` [Beispiel 51, Pyridin-2-ylcarbaminsäure 2-[6-(5-isopropylpyridin-2-ylsulfonylamino)-5-(2-methoxy-phenoxy)-2-morpholin-4-yl-pyrimidin-4-yloxy]ethylester]: the 50% inhibitory concentration (IC50) at humanen ETA-Rezeptor was found to be 0.4 nM. Also, in assay [1], the Kb is 0.631 nM.
